PubChem BioAssay (NCI)
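All cell lines were grown in 96-well plates and treated with compound for 48 hours. The concentration for full growth arrest is given as TGI.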

What was measured:
Assay in all cases: NCI anticancer screen, dose series, 48 h
[1] = system: OVCAR-5 ovarian
[2] = system: SK-MEL-2 melanoma
[3] = system: SW-620 colon
[4] = system: OVCAR-3 ovarian
[5] = system: KM12 colon
[6] = system: SK-OV-3 ovarian
[7] = system: HCT-15 colon
[8] = system: NCI-H522 lung
[9] = system: MALME-3M melanoma
[10] = system: NCI-H23 lung

| Compound | TGI [1] [µM] | TGI [2] [µM] | TGI [3] [µM] | TGI [4] [µM] | TGI [5] [µM] | TGI [6] [µM] | TGI [7] [µM] | TGI [8] [µM] | TGI [9] [µM] | TGI [10] [µM] |
| --- | --- | --- | --- | --- | --- | --- | --- | --- | --- | --- |
| C[C@H](C/C=C/C(C)(C)O)[C@H]1CC[C@@]2(C)[C@@H]3CC[C@H]4C(C)(C)[C@@H](O)CC[C@@]45C[C@@]35CC[C@]12C | 38.8 | 37.7 | 65.4 | > 100 | 77.4 | > 100 | 83.1 | 15.4 | – | – |
| NNC(=O)c1cc(=O)[nH][nH]1 | > 100 | > 100 | > 100 | – | > 100 | > 100 | > 100 | > 100 | > 100 | > 100 |
| COc1ccc2oc(=O)c(-c3csc(C)n3)cc2c1 | > 100 | > 100 | > 100 | – | > 100 | 87.3 | > 100 | – | – | – |
| O=C(OCC(Cl)(Cl)Cl)O[C@@H]1CCCC1(c1ccccc1)c1ccccc1 | > 100 | – | > 100 | – | > 100 | > 100 | > 100 | > 100 | – | > 100 |
| CN(C)c1cccc(NC2=NCCO2)c1 | > 100 | 48.7 | > 100 | > 100 | 78.6 | – | > 100 | > 100 | > 100 | 85.3 |
| CCN(CC)c1ccc2cc(C(=O)Nc3ccccn3)c(=N)oc2c1 | > 100 | 95.7 | > 100 | > 100 | > 100 | > 100 | > 100 | – | > 100 | > 100 |
| C[C@@H]1S[C@H](c2c(Cl)cccc2Cl)N2Cc3ccccc3N=C12 | > 100 | > 100 | > 100 | > 100 | > 100 | > 100 | > 100 | – | – | > 100 |
| COc1ccccc1C[C@@H]1OC2(C=CC(=O)C=C2)O[C@H]1Cc1ccccc1OC | 16.5 | 18.4 | 5.98 | 18.9 | 18.8 | 24.5 | 27.9 | – | 21.3 | 18.9 |
| O=C(NNc1nc(-c2ccccc2)cs1)C(F)(F)F | > 100 | > 100 | > 100 | – | > 100 | > 100 | > 100 | > 100 | > 100 | > 100 |
| CCCC(CCN)(CCN)[N+](=O)[O-] | > 100 | > 100 | > 100 | – | > 100 | > 100 | > 100 | > 100 | > 100 | > 100 |
| CC(=O)N1CCn2c1nc1cc(Cl)ccc12 | > 100 | 92.4 | > 100 | > 100 | > 100 | 68 | > 100 | > 100 | > 100 | – |
| O=C(CCc1ccccc1)ON1C(=S)C(c2ccccc2)(c2ccccc2)N=C1Sc1ccccc1 | > 100 | > 100 | – | > 100 | > 100 | > 100 | > 100 | – | > 100 | > 100 |
